From patent US9023789B2, “Amylin analogs and pharmaceutical compositions thereof” (Novo Nordisk A/S, priority 2012, dated 2015) come the findings set out here.

Data set [1] is described as follows: ASSAY (III) ThT fibrillation assay for physical stability. Type of data set: physicochemical. The method, boiled down: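 Physical stability scored by ThT fluorescence (444 nm excitation, 485 nm emission) tracked every 20 min during 37 °C incubation with 960 rpm shaking, ThT at 1 μM final. Values are replicate means with SD at chosen times; HPLC against pramlintide standard gives initial and post-assay soluble concentrations.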

The nature of data set [2]: ASSAY (IV) determination of solubility. Type of data set: physicochemical. The gist of the method: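 Samples of polypeptide, prepared from a water stock at […] and diluted 1:1 into 100 mM buffers spanning pH 3.0 to 8.0, stood 18 hours at room temperature. Polypeptide concentration was then determined by UPLC following centrifugation.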
The target in data set [3] is T1, rat amylin receptor (rat calcitonin receptor + rat RAMP 3) (Rattus norvegicus, UniProt P32214+Q9JJ73).
T1 construct: expressed in transfected cells; host or cells: BHK tk'ts 13 (transient, FuGENE 6), membranes
T1 sequence (P32214 25-479 isoform P32214-2 limits assumed): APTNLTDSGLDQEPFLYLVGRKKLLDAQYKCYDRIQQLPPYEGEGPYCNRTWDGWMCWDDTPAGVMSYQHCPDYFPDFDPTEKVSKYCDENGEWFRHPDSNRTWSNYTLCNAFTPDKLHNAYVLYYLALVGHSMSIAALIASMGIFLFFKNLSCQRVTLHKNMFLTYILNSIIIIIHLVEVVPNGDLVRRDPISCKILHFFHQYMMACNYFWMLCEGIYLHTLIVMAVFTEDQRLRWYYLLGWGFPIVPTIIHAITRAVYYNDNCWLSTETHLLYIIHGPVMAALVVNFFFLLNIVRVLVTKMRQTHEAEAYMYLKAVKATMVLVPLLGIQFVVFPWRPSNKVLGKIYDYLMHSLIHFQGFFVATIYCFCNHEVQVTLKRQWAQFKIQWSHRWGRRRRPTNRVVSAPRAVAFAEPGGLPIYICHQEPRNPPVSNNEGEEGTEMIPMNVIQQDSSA
T1 sequence (Q9JJ73 23-147 partner): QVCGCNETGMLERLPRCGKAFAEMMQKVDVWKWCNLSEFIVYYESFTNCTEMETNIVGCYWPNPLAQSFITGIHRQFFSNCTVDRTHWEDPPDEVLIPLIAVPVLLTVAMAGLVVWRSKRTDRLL
Nature of the data set: ASSAY (VI) binding to the rat amylin receptor. The method, boiled down:
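Membranes for this rat amylin receptor binding assay came from BHK tk′ts 13 cells. The cells were transiently transfected with rat calcitonin receptor using the FuGENE® 6 reagent from Roche, as the manufacturer recommends. The cells were collected approximately 48 hours after transfection, and membranes were then prepared.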

[4] abbreviates: Table 7, rat binding selectivity, rCTR IC50 / rAmylin-R IC50.
The mark [5] stands for this setting: Table 7a (preferred compounds), rat binding selectivity, rCTR IC50 / rAmylin-R IC50.
The mark [6] stands for this setting: ratio of rCTR bind IC50 to rAmylin-R bind IC50.
[7] abbreviates: bistrispropane buffer, pH 6.5, read-out: Solubility pH 6.5 Concentration.
The mark [8] stands for this setting: bistrispropane buffer, pH 7.5, read-out: Solubility pH 7.5 Concentration.
Setting [9] is: bistrispropane buffer, pH 6.0, read-out: Solubility pH 6.0 Concentration.
[10] abbreviates: bistrispropane buffer, pH 7.0, read-out: Solubility pH 7.0 Concentration.
[11] abbreviates: bistrispropane buffer, pH 8.0, read-out: Solubility pH 8.0 Concentration.
Where [12] appears, read: glycylglycine buffer, pH 3.0, read-out: Solubility pH 3.0 Concentration.
[13] abbreviates: glycylglycine buffer, pH 4.0, read-out: Solubility pH 4.0 Concentration.
Where [14] appears, read: glycylglycine buffer, pH 5.0, read-out: Solubility pH 5.0 Concentration.
[15] abbreviates: Table 7, binding to rat amylin receptor, read-out: rAmylin-R bind IC50.

Converted amounts (≈) assume the structure as drawn. Where two headings read alike, the source gives them in different places. Numbered stars: 1 amine (or outer) side, 2 acyl side, 3 side chain; on linkers, the order of the positions; unused ones are H or OH. Bridge positions count the residues as written; N and C are the ends. Side chains are listed from the residue outwards. Peptide text beside a SMILES is read from it. * marks the point of attachment. C20 diacid = O=C(O)CCCCCCCCCCCCCCCCCCC(=O)*; γGlu = O=C(O)[C@H](CCC(=O)[*:2])N[*:1]

As for `CC[C@H](C)[C@H](NC(=O)[C@H](C)NC(=O)CNC(=O)[C@H](Cc1ccccc1)NC(=O)[C@H](CC(N)=O)NC(=O)[C@@H]1CCCN1C(=O)[C@H](CO)NC(=O)[C@H](CO)NC(=O)[C@H](Cc1c[nH]cn1)NC(=O)[C@H](CCCNC(=N)N)NC(=O)[C@H](CC(C)C)NC(=O)[C@H](Cc1ccccc1)NC(=O)[C@H](C)NC(=O)[C@H](C)NC(=O)[C@H](CC(C)C)NC(=O)[C@H](CCCNC(=N)N)NC(=O)[C@H](CCC(N)=O)NC(=O)[C@@H](NC(=O)[C@H](C)NC(=O)[C@@H]1CSSC[C@H](NC(=O)[C@H](CCCNC(=N)N)NC(=O)CNC(=O)CC[C@H](NC(=O)CCCCCCCCCCCCCCCCCCC(=O)O)C(=O)O)C(=O)N[C@@H](CC(N)=O)C(=O)N[C@@H]([C@@H](C)O)C(=O)N[C@@H](C)C(=O)N[C@@H]([C@@H](C)O)C(=O)N1)[C@@H](C)O)C(=O)N1CCC[C@H]1C(=O)N[C@@H](CO)C(=O)N[C@@H](CO)C(=O)N[C@H](C(=O)N[C@@H](CC(N)=O)C(=O)N[C@H](C(=O)NCC(=O)N1CCC[C@H]1C(=O)N[C@@H](CC(N)=O)C(=O)N[C@H](C(=O)N[C@@H](Cc1ccc(O)cc1)C(N)=O)[C@@H](C)O)C(C)C)[C@@H](C)O` [Example 103] ({C20 diacid-γGlu}-GRCNTATCATQRLAAFLRHSSPNFGAIPSSTNVGPNTY-NH2; disulfide 3-8), the “ThT pH 4.0 lag time (h)” value in data set [1] is listed as 45 h. For the same molecule, the solubility at 18 h in data set [2] (pH 3.0, read-out: Solubility pH 3.0 Concentration) was ≥ 200 µM; in data set [2] (pH 4.0, read-out: Solubility pH 4.0 Concentration), ≥ 200 µM; in data set [2] (pH 5.0, read-out: Solubility pH 5.0 Concentration) it was ≥ 200 µM; in data set [2] (pH 6.0, read-out: Solubility pH 6.0 Concentration), ≥ 200 µM; in data set [2] (pH 6.5, read-out: Solubility pH 6.5 Concentration) it was ≥ 200 µM; in data set [2] (pH 7.0, read-out: Solubility pH 7.0 Concentration) it was ≥ 200 µM. Moreover, the solubility at 18 h was 141 µM (≈ 625 µg/mL) in data set [2] (pH 7.5, read-out: Solubility pH 7.5 Concentration) and 194 µM (≈ 860 µg/mL) in data set [2] (pH 8.0, read-out: Solubility pH 8.0 Concentration). Further, the concentration for half-maximal inhibition (IC50) (in general, the midpoint of a concentration-inhibition curve) in data set [3] was 0.436 nM. Moreover, the “Ratio rCT/rAmylin binding” value in data set [3] (setting [4]), in data set [3] (setting [5]) and in data set [3] (setting [6]) was 129.1 in each case.
For `CC[C@H](C)[C@H](NC(=O)[C@H](C)NC(=O)CNC(=O)[C@H](Cc1ccccc1)NC(=O)[C@H](CC(N)=O)NC(=O)[C@@H]1CCCN1C(=O)[C@H](CO)NC(=O)[C@H](CO)NC(=O)[C@H](Cc1c[nH]cn1)NC(=O)[C@H](CCCNC(=N)N)NC(=O)[C@H](CC(C)C)NC(=O)[C@H](Cc1ccccc1)NC(=O)[C@H](CCC(=O)O)NC(=O)[C@H](C)NC(=O)[C@H](CC(C)C)NC(=O)[C@H](CCCNC(=N)N)NC(=O)[C@H](CCC(N)=O)NC(=O)[C@@H](NC(=O)[C@H](C)NC(=O)[C@@H]1CSSC[C@H](NC(=O)[C@@H](N)CCCCNC(=O)CC[C@H](NC(=O)CC[C@H](NC(=O)CCCCCCCCCCCCCCCCCCC(=O)O)C(=O)O)C(=O)O)C(=O)N[C@@H](CC(N)=O)C(=O)N[C@@H]([C@@H](C)O)C(=O)N[C@@H](C)C(=O)N[C@@H]([C@@H](C)O)C(=O)N1)[C@@H](C)O)C(=O)N1CCC[C@H]1C(=O)N[C@@H](CO)C(=O)N[C@@H](CO)C(=O)N[C@H](C(=O)N[C@@H](CC(N)=O)C(=O)N[C@H](C(=O)NCC(=O)N[C@@H](Cc1c[nH]cn1)C(=O)N[C@@H](CCC(=O)O)C(=O)N[C@H](C(=O)N[C@@H](Cc1ccc(O)cc1)C(N)=O)[C@@H](C)O)C(C)C)[C@@H](C)O` [Example 104] (H-K([γGlu-γGlu-C20 diacid])CNTATCATQRLAEFLRHSSPNFGAIPSSTNVGHETY-NH2; disulfide 2-7; N-terminus assumed), in data set [1], the “ThT pH 4.0 lag time (h)” value was determined as 45 h. The solubility at 18 h in data set [2] (setting [7]), in data set [2] (setting [8]), in data set [2] (setting [9]), in data set [2] (setting [10]), in data set [2] (setting [11]) and in data set [2] (setting [12]) was ≥ 200 µM in each case. The solubility at 18 h in data set [2] (setting [13]) and in data set [2] (setting [14]) was ≥ 200 µM throughout. The IC50 in data set [3] (setting [15]) is 3.14 nM. Also, the “Ratio rCT/rAmylin binding” value in data set [3] (setting [4]), in data set [3] (setting [5]) and in data set [3] (setting [6]) was 158.8 each time.
Take `CC[C@H](C)[C@H](NC(=O)[C@H](C)NC(=O)CNC(=O)[C@H](Cc1ccccc1)NC(=O)[C@H](CC(N)=O)NC(=O)[C@@H]1CCCN1C(=O)[C@H](CO)NC(=O)[C@H](CO)NC(=O)[C@H](Cc1c[nH]cn1)NC(=O)[C@H](CCCNC(=N)N)NC(=O)[C@H](CC(C)C)NC(=O)[C@H](Cc1ccccc1)NC(=O)[C@H](CCC(=O)O)NC(=O)[C@H](C)NC(=O)[C@H](CC(C)C)NC(=O)[C@H](CCCNC(=N)N)NC(=O)[C@H](CCC(N)=O)NC(=O)[C@@H](NC(=O)[C@H](C)NC(=O)[C@@H]1CSSC[C@H](NC(=O)[C@@H](N)CCCCNC(=O)CC[C@H](NC(=O)CC[C@H](NC(=O)CCCCCCCCCCCCCCCCCCC(=O)O)C(=O)O)C(=O)O)C(=O)N[C@@H](CC(N)=O)C(=O)N[C@@H]([C@@H](C)O)C(=O)N[C@@H](C)C(=O)N[C@@H]([C@@H](C)O)C(=O)N1)[C@@H](C)O)C(=O)N1CCC[C@H]1C(=O)N[C@@H](CO)C(=O)N[C@@H](CO)C(=O)N[C@H](C(=O)N[C@@H](CC(N)=O)C(=O)N[C@H](C(=O)NCC(=O)N[C@@H](CCCNC(=N)N)C(=O)N[C@@H](CCC(=O)O)C(=O)N[C@H](C(=O)N[C@@H](Cc1ccc(O)cc1)C(N)=O)[C@@H](C)O)C(C)C)[C@@H](C)O` [Example 105] (H-K([γGlu-γGlu-C20 diacid])CNTATCATQRLAEFLRHSSPNFGAIPSSTNVGRETY-NH2; disulfide 2-7; N-terminus assumed): the “ThT pH 4.0 lag time (h)” value in data set [1] was 45 h. Further, the solubility at 18 h in data set [2] (setting [7]), in data set [2] (setting [8]), in data set [2] (setting [9]), in data set [2] (setting [10]), in data set [2] (setting [11]) and in data set [2] (setting [12]) was ≥ 200 µM each time. In addition, the solubility at 18 h in data set [2] (setting [13]) and in data set [2] (setting [14]) was ≥ 200 µM throughout. For the same molecule, in data set [3] (setting [15]), the half-inhibitory concentration (IC50) amounted to 2.86 nM. Also, the “Ratio rCT/rAmylin binding” value in data set [3] (setting [4]), in data set [3] (setting [5]) and in data set [3] (setting [6]) was 158.2 each time.
As for `CC[C@H](C)[C@H](NC(=O)[C@H](C)NC(=O)CNC(=O)[C@H](Cc1ccccc1)NC(=O)[C@H](CC(N)=O)NC(=O)[C@@H]1CCCN1C(=O)[C@H](CO)NC(=O)[C@H](CO)NC(=O)[C@H](Cc1c[nH]cn1)NC(=O)[C@H](CCCNC(=N)N)NC(=O)[C@H](CC(C)C)NC(=O)[C@H](Cc1ccccc1)NC(=O)[C@H](CCC(=O)O)NC(=O)[C@H](C)NC(=O)[C@H](CC(C)C)NC(=O)[C@H](CCCNC(=N)N)NC(=O)[C@H](CCC(N)=O)NC(=O)[C@@H](NC(=O)[C@H](C)NC(=O)[C@@H]1CSSC[C@H](NC(=O)[C@@H](N)CCCCNC(=O)CC[C@H](NC(=O)CC[C@H](NC(=O)CCCCCCCCCCCCCCCCCCC(=O)O)C(=O)O)C(=O)O)C(=O)N[C@@H](CC(N)=O)C(=O)N[C@@H]([C@@H](C)O)C(=O)N[C@@H](C)C(=O)N[C@@H]([C@@H](C)O)C(=O)N1)[C@@H](C)O)C(=O)N1CCC[C@H]1C(=O)N[C@@H](CO)C(=O)N[C@@H](CO)C(=O)N[C@H](C(=O)N[C@@H](CC(N)=O)C(=O)N[C@H](C(=O)NCC(=O)N1CCC[C@H]1C(=O)N[C@@H](CCC(=O)O)C(=O)N[C@H](C(=O)N[C@@H](Cc1ccc(O)cc1)C(N)=O)[C@@H](C)O)C(C)C)[C@@H](C)O` [Example 106] (H-K([γGlu-γGlu-C20 diacid])CNTATCATQRLAEFLRHSSPNFGAIPSSTNVGPETY-NH2; disulfide 2-7; N-terminus assumed), the “ThT pH 4.0 lag time (h)” value in data set [1] turned out to be 33 h. Besides, the solubility at 18 h in data set [2] (setting [7]), in data set [2] (setting [8]), in data set [2] (setting [9]), in data set [2] (setting [10]), in data set [2] (setting [11]) and in data set [2] (setting [12]) was ≥ 200 µM in each case. For the same molecule, the solubility at 18 h in data set [2] (setting [13]) and in data set [2] (setting [14]) was ≥ 200 µM throughout. Further, the IC50 in data set [3] (setting [15]) is 0.182 nM. Further, the “Ratio rCT/rAmylin binding” value in data set [3] (setting [4]), in data set [3] (setting [5]) and in data set [3] (setting [6]) was 88.5 in each case.
